Laboratory results reported in patent publication US20230100838A1 (Revolution Medicines, Inc., priority 2019, published 2023).

Assays:
Assay type in all cases: binding
[1] = molecular target: T1, GDP-loaded K-Ras (1-169) G12D, C51S, C80L, C118S (Homo sapiens, UniProt P01116, C118S/C51S/C80L/G12D); test: K-Ras G12D(GDP) cross-linking assay (conjugate formation, TOF mass spectrometry); design: key: 0: No observed x-linking; +: 0 < x ≤ 20; ++: 20 < x ≤ 40; +++: 40 < x ≤ 100; details: percent covalently modified K-Ras by MS, room temperature, typical compound conc. 2, 10, 25 μM, endpoints 1 and 24 h
T1 construct: GDP-loaded K-Ras (1-169) G12D, C51S, C80L, C118S
Procedure: (§1) Protocol: K-Ras G12D(GDP) Cross-Linking Assay
(§2) Note: while the following protocol outlines the procedure for K-Ras G12D(GDP), a person of skill in the art may substitute other Ras proteins, and may also substitute a non-hydrolyzable GTP analog for GDP to study GTP bound Ras protein.
(§3) GDP-loaded K-Ras (1-169) G12D, C51S, C80L, C118S and GDP-loaded K-Ras (1-169) C51S, C80L, C118S were adjusted to 50 μM in K-Ras assay buffer (12.5 mM HEPES, 75 mM NaCl and 1 mM MgCl2 at pH 7.4). A 5 μL aliquot of each protein solution was added to each well of a 96-well microplate containing 40 μL of assay buffer. Initial compound stocks were prepared in DMSO at 100 times their final assay concentration. Compounds were then diluted 10-fold into K-Ras assay buffer to 10 times their final concentration. A 5 μL aliquot of each diluted compound solution was added to each protein solution in the 96-well microplate to initiate the reaction, which then proceeded at room temperature. Typical final compound concentrations were 2, 10, and 25 μM. At each time point, the reactions were analyzed immediately or quenched with 5 μL of a 5% formic acid solution and kept at 4° C. until analysis. Typical assay endpoints were 1 and 24 h.
(§4) Data collection took place on an Agilent 6230 TOF Mass Spectrometer. Complete reactions were injected onto a C4 reverse-phase column to separate protein from buffer components prior to entering the mass spectrometer. The proteins were eluted from the column by increasing acetonitrile fraction in the mobile phase and fed directly into the mass analyzer. Initial analysis of raw data took place in Agilent MassHunter BioConfirm software and consisted of deconvolution of multiple protein charge states with the maximum entropy algorithm, with a mass step of 1 Da. The heights of all deconvoluted protein masses were exported for further data analysis. The percent modification of each protein was then determined by calculating the peak height of the covalently modified K-Ras species as a percentage of the sum total of K-Ras protein peak height.

[2] = molecular target: T2, GDP-loaded K-Ras (1-169) C51S, C80L, C118S (Homo sapiens, UniProt P01116, C118S/C51S/C80L); test: K-Ras WT (GDP) cross-linking assay (conjugate formation, TOF mass spectrometry); design: key: 0: No observed x-linking; +: 0 < x ≤ 20; ++: 20 < x ≤ 40; +++: 40 < x ≤ 100; details: percent covalently modified K-Ras by MS, room temperature, typical compound conc. 2, 10, 25 μM, endpoints 1 and 24 h
T2 construct: GDP-loaded K-Ras (1-169) C51S, C80L, C118S
Procedure: as §1, §2, §3, §4

K-Ras G12S = K-Ras G12S (Homo sapiens, UniProt P01116, G12S); test: K-Ras G12S cross-linking assay (comparable procedure, conjugate formation, TOF mass spectrometry); design: key: 0: No observed x-linking; details: Table 4, percent covalently modified K-Ras by MS
Procedure: as §1, §2, §3, §4

Compound	G12D x-linking (%) ([1]; Table 4)	WT x-linking (%) ([2]; Table 4)	G12S x-linking (%) (K-Ras G12S)	G12D x-linking (%) ([1]; Table 5)	WT x-linking (%) ([2]; Table 5)
Fc1ccccc1-c1c(Cl)cc2c(N3CCC(N=C=NCc4ccccc4)CC3)ncnc2c1F [Example 1, N-benzyl-N-(1-(6-chloro-8-fluoro-7-(2-fluorophenyl)quinazolin-4-yl)piperidin-4-yl)methanediimine]	+ (0 < x ≤ 20)	+ (0 < x ≤ 20)	+ (0 < x ≤ 10)	–	–
Fc1ccccc1-c1c(Cl)cc2c(N3CCC(N=C=Nc4ccccc4)CC3)ncnc2c1F [Example 2, N-(1-(6-chloro-8-fluoro-7-(2-fluorophenyl)quinazolin-4-yl)piperidin-4-yl)-N-phenylmethanediimine]	+ (0 < x ≤ 20)	+ (0 < x ≤ 20)	+ (0 < x ≤ 10)	–	–
CC(C)N=C=NC1CCN(c2ncnc3c(F)c(-c4ccccc4F)c(Cl)cc23)CC1 [Example 3]	+ (0 < x ≤ 20)	+ (0 < x ≤ 20)	+ (0 < x ≤ 10)	–	–
CN=C=NC1CCN(c2ncnc3c(F)c(-c4ccccc4F)c(Cl)cc23)CC1 [Example 4, N-(1-(6-chloro-8-fluoro-7-(2-fluorophenyl)quinazolin-4-yl)piperidin-4-yl)-N-methylmethanediimine]	+ (0 < x ≤ 20)	+ (0 < x ≤ 20)	++ (10 < x ≤ 100)	–	–
COc1ccc(N=C=NC2CCN(c3ncnc4c(F)c(-c5ccccc5F)c(Cl)cc34)CC2)cc1 [Example 5, N-(1-(6-chloro-8-fluoro-7-(2-fluorophenyl)quinazolin-4-yl)piperidin-4-yl)-N-(4-methoxyphenyl)methanediimine]	0	0	0	–	–
Fc1ccccc1-c1c(Cl)cc2c(N3CCC(N=C=Nc4ccc(Cl)cc4)CC3)ncnc2c1F [Example 6, N-(1-(6-chloro-8-fluoro-7-(2-fluorophenyl)quinazolin-4-yl)piperidin-4-yl)-N-(4-chiorophenyl)methanediimine]	0	0	0	–	–
CN(CCN=C=Nc1ccccc1)c1ncnc2c(F)c(-c3ccccc3F)c(Cl)cc12 [Example 7, 6-chloro-8-fluoro-7-(2-fluorophenyl)-N-methyl-N-(2-(((phenylimino)methylene)amino)ethyl)quinazolin-4-amine]	+ (0 < x ≤ 20)	+ (0 < x ≤ 20)	+ (0 < x ≤ 10)	–	–
CN(CCN=C=NCc1ccccc1)c1ncnc2c(F)c(-c3ccccc3F)c(Cl)cc12 [Example 8, N-(2-(((benzylimino)methylene)amino)ethyl)-6-chloro-8-fluoro-7-(2-fluorophenyl)-N-methylquinazolin-4-amine]	+ (0 < x ≤ 20)	+ (0 < x ≤ 20)	+ (0 < x ≤ 10)	–	–
CN=C=NCCN(C)c1ncnc2c(F)c(-c3ccccc3F)c(Cl)cc12 [Example 9, 6-chloro-8-fluoro-7-(2-fluorophenyl)-N-methyl-N-(2-(((methylimino)methylene)amino)ethyl)quinazolin-4-amine]	+ (0 < x ≤ 20)	+ (0 < x ≤ 20)	+ (0 < x ≤ 10)	–	–
O=C(NCCCl)NC1CCN(c2ncnc3c(F)c(-c4ccccc4F)c(Cl)cc23)CC1 [Example 10, 1-(1-(6-chloro-8-fluoro-7-(2-fluorophenyl)quinazolin-4-yl)piperidin-4-yl)-3-(2-chloroethyl)urea]	+ (0 < x ≤ 20)	+ (0 < x ≤ 20)	+ (0 < x ≤ 10)	–	–
O=C(NCCCl)NCCNc1ncnc2c(F)c(-c3ccccc3F)c(Cl)cc12 [Example 12, 1-(2-((6-chloro-8-fluoro-7-(2-fluorophenyl)quinazolin-4-yl)amino)ethyl)-3-(2-chloroethyl)urea]	0	0	0	–	–
Cc1ccnc(C(C)C)c1-n1c(=O)nc(N2[C@@H](C)CN(C(=O)[C@H]3CN3)C[C@@H]2C)c2cc(F)c(-c3c(O)cccc3F)nc21 [Example 136]	–	–	–	+ (0 < x ≤ 20)	+ (0 < x ≤ 20)
Cc1ccnc(C(C)C)c1-n1c(=O)nc(N2[C@H](C)CN(C(=O)[C@H]3CN3)C[C@H]2C)c2cc(F)c(-c3c(O)cccc3F)nc21 [Example 137]	–	–	–	0	0
Cc1ccnc(C(C)C)c1-n1c(=O)nc(N2C[C@@H](C)N(C(=O)[C@H]3CN3)C[C@@H]2C)c2cc(F)c(-c3c(O)cccc3F)nc21 [Example 138]	–	–	–	0	0
Cc1ccnc(C(C)C)c1-n1c(=O)nc(N2C[C@H](C)N(C(=O)[C@H]3CN3)C[C@H]2C)c2cc(F)c(-c3c(O)cccc3F)nc21 [Example 139]	–	–	–	0	0
Cc1ccnc(C(C)C)c1-n1c(=O)nc(N2[C@H](C)CN(C(=O)[C@@H]3CN3)C[C@@H]2C)c2cc(F)c(-c3c(O)cccc3F)nc21 [Example 140]	–	–	–	0	0
Cc1ccnc(C(C)C)c1-n1c(=O)nc(N2[C@H](C)CN(C(=O)[C@@H]3CN3)C[C@H]2C)c2cc(F)c(-c3c(O)cccc3F)nc21 [Example 142]	–	–	–	+ (0 < x ≤ 20)	+ (0 < x ≤ 20)
Cc1ccnc(C(C)C)c1-n1c(=O)nc(N2C[C@@H](C)N(C(=O)[C@@H]3CN3)C[C@@H]2C)c2cc(F)c(-c3c(O)cccc3F)nc21 [Example 143]	–	–	–	0	0
Cc1ccnc(C(C)C)c1-n1c(=O)nc(N2C[C@H](C)N(C(=O)[C@@H]3CN3)C[C@H]2C)c2cc(F)c(-c3c(O)cccc3F)nc21 [Example 144]	–	–	–	0	0
CO[C@H]1CCCC[C@@H]1N=C=NC1CCN(c2nc(OC[C@@H]3CCCN3C)nc3c2CCN(c2cccc4cccc(C)c24)C3)CC1 [Example 145]	–	–	–	+ (0 < x ≤ 20)	+ (0 < x ≤ 20)
CO[C@@H]1CCCC[C@@H]1N=C=NC1CCN(c2nc(OC[C@@H]3CCCN3C)nc3c2CCN(c2cccc4cccc(C)c24)C3)CC1 [Example 146]	–	–	–	+ (0 < x ≤ 20)	+ (0 < x ≤ 20)
CO[C@@H]1CCCC[C@H]1N=C=NC1CCN(c2nc(OC[C@@H]3CCCN3C)nc3c2CCN(c2cccc4cccc(C)c24)C3)CC1 [Example 147]	–	–	–	+ (0 < x ≤ 20)	+ (0 < x ≤ 20)
CO[C@H]1CCCC[C@H]1N=C=NC1CCN(c2nc(OC[C@@H]3CCCN3C)nc3c2CCN(c2cccc4cccc(C)c24)C3)CC1 [Example 148]	–	–	–	+ (0 < x ≤ 20)	+ (0 < x ≤ 20)
COC1CC1N=C=NC1CCN(c2nc(OC[C@@H]3CCCN3C)nc3c2CCN(c2cccc4cccc(C)c24)C3)CC1 (stereo partly drawn) [Example 151]	–	–	–	+++ (40 < x ≤ 100)	+ (0 < x ≤ 20)
COCC1(N=C=N[C@H]2C[C@H](Nc3nc(OC[C@@H]4CCCN4C)nc4c3CCN(c3cccc5cccc(C)c35)C4)C2)CC1 [Example 152]	–	–	–	+++ (40 < x ≤ 100)	+ (0 < x ≤ 20)
COCC1(N=C=N[C@@H]2CCN(c3nc(OC[C@@H]4CCCN4C)nc4c3CCN(c3cccc5cccc(C)c35)C4)C[C@@H]2CC#N)CC1 [Example 153]	–	–	–	++ (20 < x ≤ 40)	+ (0 < x ≤ 20)
